Experimental data published in ChEMBL document CHEMBL5625230, “The recent developments of camptothecin and its derivatives as potential anti-tumor agents” (Eur J Med Chem, 2023).

Assays:
[1] = Cytotoxicity against Sf9 cells assessed as inhibition of cell growth measured after 24 hrs by MTT assay; assay type: toxicity, cell-based; conditions: Spodoptera frugiperda
[2] = Anticancer activity against human KBV cells assessed as reduction in cell growth measured after 72 hrs by SRB assay; assay type: functional, cell-based
[3] = Antitumor activity against mouse RM1 cells xenografted in C57BL/6 mouse assessed as tumor growth inhibition at 9 mg/kg, ip administered every other day for 3 times and measured on day 7 relative to control; assay type: functional; conditions: RM1, 168 h, time 7 day, read-out: TGI
[4] = system: A549; experiment: Antiproliferative activity against human A549 cells assessed as inhibition of cell viability measured after 72 hrs by CCK-8 assay; assay type: functional, cell-based; conditions: A549, 72 h
[5] = system: A549; experiment: Antitumor activity against human A549 cells assessed as reduction in cell viability incubated for 72 hrs by CCK-8 assay; assay type: functional, cell-based; conditions: A549, 72 h
[6] = system: PC-3M; experiment: Cytotoxicity against human PC-3M cells assessed as reduction in cell viability measured after 72 hrs by MTS assay; assay type: functional, cell-based
[7] = system: HL-60; experiment: Antiproliferative activity against human HL-60 cells assessed as reduction in cell viability incubated for 48 hrs by MTT assay; assay type: functional, cell-based; conditions: HL-60, 48 h
[8] = system: HT-29; experiment: Antiproliferative activity against human HT-29 cells assessed as reduction in cell viability incubated for 72 hrs by MTT assay; assay type: functional, cell-based; conditions: HT-29, 72 h
[9] = system: HepG2; experiment: Antiproliferative activity against human HepG2 cells assessed as reduction in cell viability incubated for 72 hrs by MTT assay; assay type: functional, cell-based; conditions: HepG2, 72 h

Question: Which IC50 at 24 h [1] does the source give for CCCCCNC(=O)c1c2c(nc3ccccc13)-c1cc3c(c(=O)n1C2)COC(=O)[C@]3(O)CC here?
Answer: Its IC50 at 24 h is 2.01 µM.

Question: Which IC50 [2] does the source give for CC[C@@]1(O)C(=O)OCc2c1cc1n(c2=O)Cc2c-1nc1ccccc1c2CN1CCN(C(=S)Nc2ccccc2OC)CC1 here?
Answer: The IC50 was 514 µM.

Question: For CC[C@@]1(OC(=O)CCC(=O)O[C@@H]2O[C@@H](C)[C@H](OC(C)=O)[C@@H](OC(C)=O)[C@H]2OC(C)=O)C(=O)OCc2c1cc1n(c2=O)Cc2cc3cc4c(cc3nc2-1)OCO4, which inhibition in vivo at 9 mg/kg [3] is on record?
Answer: Its inhibition in vivo at 9 mg/kg is 44.9%.

Question: For CC[C@]1(O)c2cc3n(c(=O)c2CO[C@H]1F)Cc1cc2c4c(ccc2nc1-3)OCN(C1CCCCC1)C4, which IC50 [4] is on record?
Answer: The IC50 was 0.63 µM.

Question: With CC[C@@]1(O)C(=O)OCc2c1cc1n(c2=O)Cc2c-1nc1ccccc1c2C(=O)NCc1ccc(F)cc1 as the compound, how does the IC50 at 24 h [1] read?
Answer: The IC50 at 24 h was 2.01 µM.

Question: Which IC50 [4] does the source give for CC[C@]1(O)c2cc3n(c(=O)c2CO[C@H]1F)Cc1cc2c4c(ccc2nc1-3)OCN(C1CCCC1)C4 here?
Answer: Its IC50 is 0.63 µM.

Question: With CC[C@]1(O)c2cc3n(c(=O)c2CO[C@H]1F)Cc1cc2c4c(ccc2nc1-3)OCN(C1CC1)C4 as the compound, how does the IC50 [4] read?
Answer: Its IC50 is 0.63 µM.

Question: For CC[C@@]1(OC(=O)[C@@H](Cc2ccccc2)NC(=O)OC(C)(C)C)C(=O)OCc2c1cc1n(c2=O)Cc2cc3ccccc3nc2-1, which IC50 [5] is on record?
Answer: Its IC50 is 0.018 µM.

Question: What about the IC50 [6] of the same compound?
Answer: The IC50 was 0.088 µM.

Question: Which IC50 [2] does the source give for CC[C@@]1(O)C(=O)OCc2c1cc1n(c2=O)Cc2c-1nc1ccccc1c2CN1CCN(C(=S)Nc2cccc3ccccc23)CC1 here?
Answer: The IC50 was 275 µM.

Question: Which IC50 at 24 h [1] does the source give for CC[C@@]1(O)C(=O)OCc2c1cc1n(c2=O)Cc2c-1nc1ccccc1c2C(=O)NCc1ccccc1 here?
Answer: Its IC50 at 24 h is 2.01 µM.

Question: Which IC50 [7] does the source give for CC[C@@]1(OCc2cn([C@@H]3c4cc5c(cc4[C@@H](c4cc(OC)c(O)c(OC)c4)[C@H]4C(=O)OC[C@@H]43)OCO5)nn2)C(=O)OCc2c1cc1n(c2=O)Cc2cc3ccccc3nc2-1 here?
Answer: Its IC50 is 17.7 µM.

Question: For CCCCCCCCCCCCCCCCOC(=O)[C@@]1(C)CCc2c(C)c(OC(=O)CCC(=O)O[C@]3(CC)C(=O)OCc4c3cc3n(c4=O)Cc4c-3nc3ccc(O)cc3c4CC)c(C)c(C)c2O1, which IC50 [8] is on record?
Answer: The IC50 was 0.0451 µM.

Question: And the IC50 [9]?
Answer: Its IC50 is 0.165 µM.

Question: Which IC50 [4] does the source give for CC[C@]1(O)c2cc3n(c(=O)c2CO[C@H]1F)Cc1cc2c4c(ccc2nc1-3)OCN(C1CCC1)C4 here?
Answer: Its IC50 is 0.63 µM.
